Assay results reported in patent US10654834B2 (Venenum Biodesign, LLC, priority 2016, dated 2020).

Tests used:
[1] = target: T1, human TGR5 receptor (Homo sapiens, UniProt Q8TDU6); experiment: Human TGR5 cAMP production assay (hTGR5-CHO cells, DiscoveRx cAMP XS+ kit); format: cell-based; details: luminescent cAMP assay, read-out: Human TGR5 Lum. cAMP Activity (EC50)
T1 construct: host or cells: CHO-K1 (hTGR5-CHO)
T1 sequence (Q8TDU6 1-330): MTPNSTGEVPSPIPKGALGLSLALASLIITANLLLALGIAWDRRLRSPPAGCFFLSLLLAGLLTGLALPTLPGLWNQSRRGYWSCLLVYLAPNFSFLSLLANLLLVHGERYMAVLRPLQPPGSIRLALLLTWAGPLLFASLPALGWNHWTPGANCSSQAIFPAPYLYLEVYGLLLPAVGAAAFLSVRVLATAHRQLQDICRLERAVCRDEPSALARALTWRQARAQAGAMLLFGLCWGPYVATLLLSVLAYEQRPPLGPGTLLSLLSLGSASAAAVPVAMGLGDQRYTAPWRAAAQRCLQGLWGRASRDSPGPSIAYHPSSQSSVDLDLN
Experimental: Human TGR5 cAMP Production Assay
Compounds of the present invention were evaluated for their ability to induce cAMP production using CHO-K1 cells overexpressing the human TGR5 receptor.
CHO-K1 cells stably expressing human TGR5 receptor (accession number NM_001077194.1) (hTGR5) (i.e., hTGR5-CHO cells) were purchased from DiscoveRx Corporation (Fremont, Calif.). hTGR5-CHO cells were grown in Ham's F-12 media supplemented with 10% Fetal Bovine Serum, 1% Penicillin-Streptomycin, 2 mM L-Alanine L-Glutamine (Glutamax), and 800 μg/mL Geneticin selection. The cAMP production assay was performed using DiscoveRx's cAMP XS+ kit (Catalog No. 90-0075XL) following the manufacturer's recommended protocol. Briefly, hTGR5-CHO cells were harvested using non-enzymatic cell dissociation buffer (Sigma-Aldrich, St. Louis, Mo.) and 1×10^6 cells were combined in Phosphate-Buffered Saline (PBS) to a final volume of 496 μL to which 4 μL of 125 mM IBMX (Sigma-Aldrich, St. Louis, Mo.) was added. 500 μL of cAMP antibody solution was added to the harvested cells and incubated at room temperature for 20 min.
Test compounds were serially diluted (half-log dilutions) in DMSO and then further diluted 1:50 in PBS, 10 mM HEPES buffer. 2 μL of serially diluted compound was added to a 384-well low volume plate (Greiner; cat #784075) and centrifuged briefly. 2 μl of the cell/cAMP antibody mixture was then added to each compound-containing well and allowed to incubate at room temperature for one hour. Following incubation, the XS+ kits' ED/Lysis/CL Substrate Working Solution was prepared following the manufacturer's recommended protocol and 4 μL was added to each well of the plate. The plate was then incubated for one hour at room temperature. Following incubation, 4 μL of Enzyme Acceptor reagent was added to the plate and allowed to incubate overnight at room temperature. Luminescent signal was then detected using the Viewlux instrument (Perkin-Elmer, Waltham, Mass.).
Human and Mouse TGR5 cAMP
(§1) In Table 52, EC50 values for both human and mouse cells were determined according to the TGR5 cAMP assays described above. […]

[2] = target: T2, mouse TGR5 receptor (Mus musculus, UniProt Q80SS6); experiment: Mouse TGR5 HTRF cAMP production assay (HEK293-EBNA cells, Cisbio cAMP HiRange kit); format: cell-based; details: HEK293-EBNA cells overexpressing mouse TGR5, HTRF cAMP assay
T2 construct: host or cells: HEK293-EBNA (293 c18, ATCC CRL10852)
T2 sequence (Q80SS6 1-329): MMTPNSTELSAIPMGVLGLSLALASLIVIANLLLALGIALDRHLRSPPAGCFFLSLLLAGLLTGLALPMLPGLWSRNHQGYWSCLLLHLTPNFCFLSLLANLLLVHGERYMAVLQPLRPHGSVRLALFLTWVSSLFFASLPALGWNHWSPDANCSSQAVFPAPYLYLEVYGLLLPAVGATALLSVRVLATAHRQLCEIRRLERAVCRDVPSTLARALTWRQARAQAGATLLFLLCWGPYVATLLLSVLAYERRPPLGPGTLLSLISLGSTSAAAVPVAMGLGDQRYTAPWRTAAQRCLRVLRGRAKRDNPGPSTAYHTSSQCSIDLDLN
Experimental: Mouse TGR5 cAMP Production Assay
Compounds of the present invention were evaluated for their ability to induce cAMP production in HEK-EBNA cells overexpressing the mouse TGR5 receptor. Human embryonic kidney cells (HEK293-EBNA) stably expressing mouse TGR5 receptor were established using the following procedure. Specifically, a commercially obtained gene encoding mouse TGR5 (accession number BC116914) from Thermo Scientific (Waltham, Mass.) was cloned into an episomal expression vector. The resulting expression plasmid was then transfected into 293 c18 (ATCC® CRL10852™) cells, which express the Epstein-Barr virus nuclear antigen EBNA1 and can support the replication of episomal vectors. Selection for the plasmid was maintained with Hygromycin B. Cells were cultured and maintained in DMEM (Sigma; cat #6429) supplemented with 10% Fetal Bovine Serum, 1% penicillin/streptomycin, 2 mM L-alanine L-glutamine (GlutaMax), and 250 μg/mL Hygromycin.
We developed two cAMP production assays.
(ii) HTRF cAMP Production Assay
In this second cAMP production assay, the cAMP production was measured in 384-well low volume plates (Greiner; cat #784075) using the Cisbio™ cAMP HiRange HTRF Assay Kit (CisBio) according to the manufacturer's protocol.
Briefly, compounds were initially diluted in 100% DMSO (12-point serial dilution by half logs) in a 96-well plate and then were further diluted 1:50 in PBS containing 10 mM HEPES. 5 μL were transferred to the 384-well assay plate in duplicate. HEK293-EBNA cells stably overexpressing mouse TGR5 were harvested using non-enzymatic cell dissociation buffer (Sigma), spun down, then resuspended in serum-free DMEM with 500 μM IBMX at a density of 500,000 cells/mL. 5 μL of cell suspension was transferred to each well of the 384-well assay plate already containing compound. The plate was covered and incubated at room temperature for 1 hour. The d2-cAMP and anti-cAMP Ab-cryptate stock solutions were prepared as per kit instructions. Then 5 μL of each conjugate (d2 and cryptate) were added to each well of the assay plate. The plate was covered and incubated at room temperature for one (1) hour. The plate was read on an Envision™ plate reader (PerkinElmer).
as §1

Structure (SMILES) | EC50 [1] | EC50 [2]
N#Cc1ccc(CCNC(=O)[C@@H]2CCCN2c2cc(C(F)(F)F)cc(N3CCC(CO)CC3)n2)cc1 [Compound 37] | 1 to 30 µM | > 30 µM
CCOC(=O)CCNC(=O)N1CCN(c2cc(N3CCC[C@@H](C(=O)NCCc4ccc(C(F)(F)F)cc4)C3)nc(C(F)(F)F)n2)CC1 [Compound 343, (R)-ethyl 3-(4-(2-(trifluoromethyl)-6-(3-((4-(trifluoromethyl)phenethyl)carbamoyl)-piperidin-1-yl)pyrimidin-4-yl)piperazine-1-carboxamido)propanoate] | 0.1 to 0.999 µM | < 0.1 µM
N#Cc1ccc(CCNC(=O)[C@@H]2CCCN2c2cc(-c3ccc(CCN)cc3)nc(C(F)(F)F)n2)cc1 [Compound 184, (S)-1-(6-(4-(2-aminoethyl)phenyl)-2-(trifluoromethyl)pyrimidin-4-yl)-N-(4-cyanophenethyl)pyrrolidine-2-carboxamide] | 0.1 to 0.999 µM | 0.1 to 0.999 µM
O=C(NCCc1ccc(C(F)(F)F)cc1)[C@@H]1CCCN(c2cc(N3CCN(C(=O)CO)CC3)nc(C(F)(F)F)n2)C1 [Compound 348, (R)-1-(6-(4-(2-hydroxyacetyl)piperazin-1-yl)-2-(trifluoromethyl)pyrimidin-4-yl)-N-(4-(trifluoromethyl)phenethyl)piperidine-3-carboxamide] | 0.1 to 0.999 µM | < 0.1 µM
N[C@@H]1C[C@@H](C(=O)NCCc2ccc(C(F)(F)F)cc2)N(c2cc(N3CCC(CCNC(=O)NCCC(=O)O)CC3)nc(C(F)(F)F)n2)C1 [Compound 375, 3-(3-(2-(1-(6-((2S,4R)-4-amino-2-((4-(trifluoromethyl)phenethyl)carbamoyl)pyrrolidin-1-yl)-2-(trifluoromethyl)pyrimidin-4-yl)piperidin-4-yl)ethyl)ureido)propanoic acid] | 1 to 30 µM | 0.1 to 0.999 µM
COC(=O)C(=O)N1CCN(c2cc(N3CCC[C@@H](C(=O)NCCc4ccc(C(F)(F)F)cc4)C3)nc(C(F)(F)F)n2)CC1 [Compound 339, (R)-methyl 2-oxo-2-(4-(2-(trifluoromethyl)-6-(3-((4-(trifluoromethyl)phenethyl)-carbamoyl)piperidin-1-yl)pyrimidin-4-yl)piperazin-1-yl)acetate] | 1 to 30 µM | 0.1 to 0.999 µM
N#Cc1ccc(CCNC(=O)[C@@H]2CC(F)(F)CN2c2cc(N3CCC(CCNC(=O)NCCS(=O)(=O)O)CC3)nc(C(F)(F)F)n2)cc1 [Compound 216, (S)-2-(3-(2-(1-(6-(2-((4-cyanophenethyl)carbamoyl)-4,4-difluoropyrrolidin-1-yl)-2-(trifluoromethyl)pyrimidin-4-yl)piperidin-4-yl)ethyl)ureido)ethanesulfonic acid] | 0.1 to 0.999 µM | 0.1 to 0.999 µM
O=C(NCCc1ccc(C(F)(F)F)cc1)[C@@H]1CCN1c1cc(N2CCC(CCCC3CCN(C(=O)CS(=O)(=O)O)CC3)CC2)nc(C(F)(F)F)n1 [Compound 280, (S)-2-oxo-2-(4-(3-(1-(2-(trifluoromethyl)-6-(2-((4-(trifluoromethyl)phenethyl)carbamoyl)azetidin-1-yl)pyrimidin-4-yl)piperidin-4-yl)propyl)piperidin-1-yl)ethanesulfonic acid] | 0.1 to 0.999 µM | < 0.1 µM
N#Cc1ccc(CCNC(=O)[C@@H]2CCCN2c2cc(-c3ccc(CNC(=O)NCCS(=O)(=O)O)cc3)nc(C(F)(F)F)n2)cc1 [Compound 191, (S)-2-(3-(4-(6-(2-((4-cyanophenethyl)carbamoyl)pyrrolidin-1-yl)-2-(trifluoromethyl)pyrimidin-4-yl)benzyl)ureido)ethanesulfonic acid] | 0.1 to 0.999 µM | < 0.1 µM

Results, then the molecule that gave them:

EC50 [1] | EC50 [2] | Structure (SMILES)
< 0.1 µM | < 0.1 µM | O=C(O)CCNC(=O)NCCC1CCN(c2cc(N3C[C@@H](O)C[C@H]3C(=O)NCCc3ccc(C(F)(F)F)cc3)nc(C(F)(F)F)n2)CC1 [Compound 374, 3-(3-(2-(1-(6-((2S,4S)-4-hydroxy-2-((4-(trifluoromethyl)phenethyl)carbamoyl)pyrrolidin-1-yl)-2-(trifluoromethyl)pyrimidin-4-yl)piperidin-4-yl)ethyl)ureido)propanoic acid]
< 0.1 µM | < 0.1 µM | COC(=O)[C@H](CCC[N+](C)(C)C)NC(=O)CCCC1CCN(c2cc(N3CCC[C@H]3C(=O)NCCc3ccc(C#N)cc3)nc(C(F)(F)F)n2)CC1 [Compound 65, (S)-4-(4-(1-(6-((S)-2-((4-cyanophenethyl)carbamoyl)pyrrolidin-1-yl)-2-(trifluoromethyl)pyrimidin-4-yl)piperidin-4-yl)butanamido)-5-methoxy-N,N,N-trimethyl-5-oxopentan-1-aminium]
< 0.1 µM | 0.1 to 0.999 µM | CN(C)CCC1CCN(c2cc(N3CCC[C@H]3C(=O)NCCc3ccc(C#N)cc3)nc(C(F)(F)F)n2)CC1 [Compound 21]
< 0.1 µM | < 0.1 µM | N#Cc1ccc(CCNC(=O)[C@@H]2CCCN2c2cc(N3CCC(CCNC(=O)NCCNC(=O)[C@@H](N)CS(=O)(=O)O)CC3)nc(C(F)(F)F)n2)cc1 [Compound 373, (R)-2-amino-3-((2-(3-(2-(1-(6-((S)-2-((4-cyanophenethyl)carbamoyl)pyrrolidin-1-yl)-2-(trifluoromethyl)pyrimidin-4-yl)piperidin-4-yl)ethyl)ureido)ethyl)amino)-3-oxopropane-1-sulfonic acid]
< 0.1 µM | < 0.1 µM | COC(=O)[C@@H](N)CCCCNC(=O)NCCC1CCN(c2cc(N3CC[C@H]3C(=O)NCCc3ccc(C#N)cc3)nc(C(F)(F)F)n2)CC1 [Compound 274, (S)-methyl 2-amino-6-(3-(2-(1-(6-((S)-2-((4-cyanophenethyl)carbamoyl)azetidin-1-yl)-2-(trifluoromethyl)pyrimidin-4-yl)piperidin-4-yl)ethyl)ureido)hexanoate]
< 0.1 µM | < 0.1 µM | N#CCCC1CCN(c2cc(N3CCC[C@@H](C(=O)NCCc4ccc(C#N)cc4)C3)nc(C(F)(F)F)n2)CC1 [Compound 311, (R)-1-(6-(4-(2-cyanoethyl)piperidin-1-yl)-2-(trifluoromethyl)pyrimidin-4-yl)-N-(4-cyanophenethyl)piperidine-3-carboxamide]
